Assay results published in patent US20120029187A1, “HALOALKYLSULFONANILIDE DERIVATIVE” (Nissan Chemical Industries, Ltd., priority 2009, published 2012).

Columns and labels:
Assay type in all cases: in vivo
ducksalad [1] = test: Test Example 2: herbicidal effects during the vegetation period under submerged conditions; conditions: treatment during the vegetation period under submerged conditions; dose 2.52 g/a
How it was run: (§1)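 Barnyardgrass, bulrush and ducksalad were co-sown in alluvial soil flooded to 4 cm and grown in a greenhouse at 25 to 30° C. At the 1- or 2-leaf stage, water-diluted emulsifiable concentrates went onto the water surface at set doses (g/a). Herbicidal effect was scored three weeks later on a graded scale.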

barnyardgrass [2] = test: as above; conditions: treatment during the vegetation period under submerged conditions; dose 2.52 g/a
How it was run: as §1

bulrush [3] = test: as above; conditions: treatment during the vegetation period under submerged conditions; dose 2.52 g/a
How it was run: as §1

common lambsquater [4] = test: Test Example 4: herbicidal effect in foliage treatment; conditions: dose 6.3 g/a, three weeks after application
How it was run: (§2)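 Weeds and crops sown in sterilized diluvial soil under ~1.5 cm cover and grown in greenhouse at 25 to 30° C. At 14 days, water-diluted emulsifiable concentrate sprayed onto foliage at set doses (g/a); herbicidal effect scored on a rating scale three weeks after application.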

common ragweed [5] = test: as above; conditions: dose 6.3 g/a, three weeks after application
How it was run: as §2

beadstraw = test: as above; conditions: dose 6.3 g/a, three weeks after application
How it was run: as §2

barnyardgrass [6] = test: as above; conditions: dose 6.3 g/a, three weeks after application
How it was run: as §2

Italian ryegrass [7] = test: as above; conditions: dose 6.3 g/a, three weeks after application
How it was run: as §2

redroot pigweed [8] = test: as above; conditions: dose 6.3 g/a, three weeks after application
How it was run: as §2

water foxtail [9] = test: as above; conditions: dose 6.3 g/a, three weeks after application
How it was run: as §2

giant foxtail [10] = test: as above; conditions: dose 6.3 g/a, three weeks after application
How it was run: as §2

large crabgrass [11] = test: as above; conditions: dose 6.3 g/a, three weeks after application
How it was run: as §2

common chickweed [12] = test: as above; conditions: dose 6.3 g/a, three weeks after application
How it was run: as §2

wild oat [13] = test: as above; conditions: dose 6.3 g/a, three weeks after application
How it was run: as §2

ducksalad [14] = test: Test Example 1: herbicidal effects in preemergence treatment under submerged conditions; conditions: dose 2.52 g/a
How it was run: (§3)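 Weed seeds and 2.5-leaf rice seedlings shared each flooded cup of alluvial soil. Dosing, expressed as g per are, was by pouring water-diluted emulsifiable concentrate onto the surface on sowing day. Mortality was graded 0 to 5 after three weeks' growth.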

barnyardgrass [15] = test: as above; conditions: dose 2.52 g/a
How it was run: as §3

bulrush [16] = test: as above; conditions: dose 2.52 g/a
How it was run: as §3

transplanted rice = test: Test Example 1: preemergence treatment under submerged conditions, effect on crop; conditions: dose 2.52 g/a
How it was run: as §3

common lambsquater [17] = test: Test Example 3: herbicidal effects in soil treatment; conditions: dose 6.3 g/a
How it was run: (§4)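 Seeds were sown in sterilized diluvial soil and covered with about 1.5 cm of soil. Compounds, formulated as emulsifiable concentrates and diluted with water, were sprayed evenly over the soil surface at set doses in g/a. Herbicidal effect was scored on a rating scale three weeks later.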

common ragweed [18] = test: as above; conditions: dose 6.3 g/a
How it was run: as §4

barnyardgrass [19] = test: as above; conditions: dose 6.3 g/a
How it was run: as §4

Italian ryegrass [20] = test: as above; conditions: dose 6.3 g/a
How it was run: as §4

redroot pigweed [21] = test: as above; conditions: dose 6.3 g/a
How it was run: as §4

water foxtail [22] = test: as above; conditions: dose 6.3 g/a
How it was run: as §4

giant foxtail [23] = test: as above; conditions: dose 6.3 g/a
How it was run: as §4

large crabgrass [24] = test: as above; conditions: dose 6.3 g/a
How it was run: as §4

common chickweed [25] = test: as above; conditions: dose 6.3 g/a
How it was run: as §4

wild oat [26] = test: as above; conditions: dose 6.3 g/a
How it was run: as §4

Compound	C: ducksalad, herbicidal effect (evaluation scale 0-5) (ducksalad [1])	A: barnyardgrass, herbicidal effect (evaluation scale 0-5) (barnyardgrass [2])	B: bulrush, herbicidal effect (evaluation scale 0-5) (bulrush [3])	L: common lambsquater, herbicidal effect (common lambsquater [4])	J: common ragweed, herbicidal effect (common ragweed [5])	O: beadstraw, herbicidal effect (beadstraw)	A: barnyardgrass, herbicidal effect (barnyardgrass [6])	H: Italian ryegrass, herbicidal effect (Italian ryegrass [7])	K: redroot pigweed, herbicidal effect (redroot pigweed [8])	G: water foxtail, herbicidal effect (water foxtail [9])	E: giant foxtail, herbicidal effect (giant foxtail [10])	D: large crabgrass, herbicidal effect (large crabgrass [11])	N: common chickweed, herbicidal effect (common chickweed [12])	F: wild oat, herbicidal effect (wild oat [13])	C: ducksalad, herbicidal effect (evaluation scale 0-5) (ducksalad [14])	A: barnyardgrass, herbicidal effect (evaluation scale 0-5) (barnyardgrass [15])	B: bulrush, herbicidal effect (evaluation scale 0-5) (bulrush [16])	a: transplanted rice, effect on crop (evaluation scale 0-5) (transplanted rice)	L: common lambsquater, herbicidal effect (evaluation scale 0-5) (common lambsquater [17])	J: common ragweed, herbicidal effect (evaluation scale 0-5) (common ragweed [18])	also measured
CC(C)COC(=O)N(c1ccccc1CN1COC(C)(C)CC1=O)S(=O)(=O)C(F)(F)F [II-26]	5 (mortality of 90% or above (nearly complete death))	5 (mortality of 90% or above (nearly complete death))	5 (mortality of 90% or above (nearly complete death))	0 (mortality of less than 5% (almost ineffective))	5 (mortality of 90% or above (nearly complete death))	4 (mortality of at least 70% and less than 90%)	4 (mortality of at least 70% and less than 90%)	3 (mortality of at least 40% and less than 70%)	0 (mortality of less than 5% (almost ineffective))	5 (mortality of 90% or above (nearly complete death))	4 (mortality of at least 70% and less than 90%)	4 (mortality of at least 70% and less than 90%)	3 (mortality of at least 40% and less than 70%)	0 (mortality of less than 5% (almost ineffective))	5 (mortality of 90% or above (nearly complete death))	5 (mortality of 90% or above (nearly complete death))	5 (mortality of 90% or above (nearly complete death))	0 (mortality of less than 5% (almost ineffective))	0 (mortality of less than 5% (almost ineffective))	5 (mortality of 90% or above (nearly complete death))	A: barnyardgrass, herbicidal effect (evaluation scale 0-5) (barnyardgrass [19]): 5 (mortality of 90% or above (nearly complete death)); H: Italian ryegrass, herbicidal effect (evaluation scale 0-5) (Italian ryegrass [20]): 3 (mortality of at least 40% and less than 70%); K: redroot pigweed, herbicidal effect (evaluation scale 0-5) (redroot pigweed [21]): 0 (mortality of less than 5% (almost ineffective)); G: water foxtail, herbicidal effect (evaluation scale 0-5) (water foxtail [22]): 5 (mortality of 90% or above (nearly complete death)); E: giant foxtail, herbicidal effect (evaluation scale 0-5) (giant foxtail [23]): 4 (mortality of at least 70% and less than 90%); D: large crabgrass, herbicidal effect (evaluation scale 0-5) (large crabgrass [24]): 5 (mortality of 90% or above (nearly complete death)); N: common chickweed, herbicidal effect (evaluation scale 0-5) (common chickweed [25]): 2 (mortality of at least 20% and less than 40%); F: wild oat, herbicidal effect (evaluation scale 0-5) (wild oat [26]): 0 (mortality of less than 5% (almost ineffective))
CC(C)COC(=O)N(c1ccccc1CN1COC(C)CC1=O)S(=O)(=O)C(F)(F)F (centres unmarked) [II-8]	4 (mortality of at least 70% and less than 90%)	5 (mortality of 90% or above (nearly complete death))	5 (mortality of 90% or above (nearly complete death))	5 (mortality of 90% or above (nearly complete death))	4 (mortality of at least 70% and less than 90%)	1 (mortality of at least 5% and less than 20%)	5 (mortality of 90% or above (nearly complete death))	0 (mortality of less than 5% (almost ineffective))	0 (mortality of less than 5% (almost ineffective))	5 (mortality of 90% or above (nearly complete death))	4 (mortality of at least 70% and less than 90%)	5 (mortality of 90% or above (nearly complete death))	1 (mortality of at least 5% and less than 20%)	0 (mortality of less than 5% (almost ineffective))	5 (mortality of 90% or above (nearly complete death))	5 (mortality of 90% or above (nearly complete death))	5 (mortality of 90% or above (nearly complete death))	0 (mortality of less than 5% (almost ineffective))	4 (mortality of at least 70% and less than 90%)	5 (mortality of 90% or above (nearly complete death))	A: barnyardgrass, herbicidal effect (evaluation scale 0-5) (barnyardgrass [19]): 5 (mortality of 90% or above (nearly complete death)); H: Italian ryegrass, herbicidal effect (evaluation scale 0-5) (Italian ryegrass [20]): 0 (mortality of less than 5% (almost ineffective)); K: redroot pigweed, herbicidal effect (evaluation scale 0-5) (redroot pigweed [21]): 0 (mortality of less than 5% (almost ineffective)); G: water foxtail, herbicidal effect (evaluation scale 0-5) (water foxtail [22]): 5 (mortality of 90% or above (nearly complete death)); E: giant foxtail, herbicidal effect (evaluation scale 0-5) (giant foxtail [23]): 4 (mortality of at least 70% and less than 90%); D: large crabgrass, herbicidal effect (evaluation scale 0-5) (large crabgrass [24]): 4 (mortality of at least 70% and less than 90%); N: common chickweed, herbicidal effect (evaluation scale 0-5) (common chickweed [25]): 3 (mortality of at least 40% and less than 70%); F: wild oat, herbicidal effect (evaluation scale 0-5) (wild oat [26]): 0 (mortality of less than 5% (almost ineffective))
CC1(C)CC(=O)N(Cc2ccccc2N(C(=O)c2ccccc2)S(=O)(=O)C(F)(F)F)CO1 [II-21]	5 (mortality of 90% or above (nearly complete death))	5 (mortality of 90% or above (nearly complete death))	5 (mortality of 90% or above (nearly complete death))	4 (mortality of at least 70% and less than 90%)	5 (mortality of 90% or above (nearly complete death))	4 (mortality of at least 70% and less than 90%)	5 (mortality of 90% or above (nearly complete death))	4 (mortality of at least 70% and less than 90%)	2 (mortality of at least 20% and less than 40%)	5 (mortality of 90% or above (nearly complete death))	4 (mortality of at least 70% and less than 90%)	4 (mortality of at least 70% and less than 90%)	4 (mortality of at least 70% and less than 90%)	0 (mortality of less than 5% (almost ineffective))	5 (mortality of 90% or above (nearly complete death))	5 (mortality of 90% or above (nearly complete death))	5 (mortality of 90% or above (nearly complete death))	0 (mortality of less than 5% (almost ineffective))	0 (mortality of less than 5% (almost ineffective))	5 (mortality of 90% or above (nearly complete death))	A: barnyardgrass, herbicidal effect (evaluation scale 0-5) (barnyardgrass [19]): 5 (mortality of 90% or above (nearly complete death)); H: Italian ryegrass, herbicidal effect (evaluation scale 0-5) (Italian ryegrass [20]): 5 (mortality of 90% or above (nearly complete death)); G: water foxtail, herbicidal effect (evaluation scale 0-5) (water foxtail [22]): 5 (mortality of 90% or above (nearly complete death)); E: giant foxtail, herbicidal effect (evaluation scale 0-5) (giant foxtail [23]): 3 (mortality of at least 40% and less than 70%); D: large crabgrass, herbicidal effect (evaluation scale 0-5) (large crabgrass [24]): 5 (mortality of 90% or above (nearly complete death)); N: common chickweed, herbicidal effect (evaluation scale 0-5) (common chickweed [25]): 4 (mortality of at least 70% and less than 90%); F: wild oat, herbicidal effect (evaluation scale 0-5) (wild oat [26]): 0 (mortality of less than 5% (almost ineffective))
